Source: patent US4927922A, “7β-(substituted)amino-3-substituted cephalosporanic acids and esters” (American Cyanamid Company, priority 1988, dated 1990)
Converted amounts (≈) assume the structure as drawn. “And” between values parts separate entries of the source, which are not always exact repeats. Identical values can stand only once. Like-named read-outs stand apart in the source and are kept apart here.

Legend:
Assay in all cases: in vitro agar dilution test (MIC)
Format in all cases: cell-based
Acinetobacter K 77-1 = conditions: K771, Acinetobacter K 77-1, Mueller-Hinton agar
Method: (§1) The compounds of the present invention are active antibacterial agents as established in the in vitro agar dilution test using Mueller-Hinton agar. The test compounds were dissolved in a mixture of dimethyl sulfoxide and aqueous sodium bicarbonate and applied as 1 ml of drug solution plus 9 ml of agar per plate. The innoculum was a 5 hour TSB shake culture diluted to 10^-2 with Mueller-Hinton broth and applied to the plates with a Steers' Replicator.
(§2) The results of this test on representative compounds of this invention (identified by Example Number) against a variety of microorganisms appear in Tables I and II in terms of minimal inhibitory concentration (MIC) in mcg/ml together with Cefotaxime, Cephalothin and Ampicillin as positive controls.

Acinetobacter STFD 79-17 = conditions: Mueller-Hinton agar
Method: as §1, §2

[1] = tested on: Enterobacter aerogenes STFD 79-14; conditions: Klebsiella aerogenes, STFD7914, Enterobacter aerogenes STFD 79-14; Mueller-Hinton agar
Method: as §1, §2

[2] = tested on: Enterobacter cloacae K 79-16; conditions: K7916, Enterobacter cloacae K 79-16, Mueller-Hinton agar
Method: as §1, §2

Enterococcus OSU 75-1 = conditions: Mueller-Hinton agar
Method: as §1, §2

Enterococcus SM 77-15 = conditions: SM7715, Enterococcus SM 77-15, Mueller-Hinton agar
Method: as §1, §2

Escherichia coli 311 = conditions: Escherichia coli, 311, Escherichia coli 311; Mueller-Hinton agar
Method: as §1, §2

[3] = tested on: Escherichia coli ATCC 25922; conditions: ATCC25922, Escherichia coli ATCC 25922, Mueller-Hinton agar, Table I
Method: as §1, §2

[4] = tested on: Escherichia coli ESS 22-31; conditions: ESS2231, Mueller-Hinton agar
Method: as §1, §2

[5] = tested on: Escherichia coli STFD 79-20; conditions: STFD7920, Escherichia coli STFD 79-20, Mueller-Hinton agar
Method: as §1, §2

Klebsiella SSC 78-1 = conditions: SSC781, Klebsiella SSC 78-1, Mueller-Hinton agar
Method: as §1, §2

Klebsiella STFD 79-6 = conditions: STFD796, Klebsiella STFD 79-6, Mueller-Hinton agar
Method: as §1, §2

Klebsiella pneumoniae AD = conditions: Mueller-Hinton agar, Table I
Method: as §1, §2

Proteus morganii K 79-25 = conditions: Morganella morganii, K7925, Proteus morganii K 79-25; Mueller-Hinton agar
Method: as §1, §2

Proteus rettgheri N 76-1 = conditions: Mueller-Hinton agar
Method: as §1, §2

Pseudomonas 12-4-4 = conditions: Mueller-Hinton agar
Method: as §1, §2

Pseudomonas SSC 78-13 = conditions: SSC7813, Mueller-Hinton agar
Method: as §1, §2

[6] = tested on: Pseudomonas aeruginosa ATCC 27853; conditions: Mueller-Hinton agar
Method: as §1, §2

Salmonella SSC 79-57 = conditions: SSC7957, Mueller-Hinton agar
Method: as §1, §2

[7] = tested on: Salmonella ariz. QHC 77-3; conditions: Mueller-Hinton agar
Method: as §1, §2

Serratia QHC 77-2 = conditions: QHC772, Serratia QHC 77-2, Mueller-Hinton agar
Method: as §1, §2

Serratia TUL 78-15 = conditions: TUL7815, Serratia TUL 78-15, Mueller-Hinton agar
Method: as §1, §2

[8] = tested on: Staphylococcus ATCC 25923; conditions: ATCC25923, Staphylococcus ATCC 25923, Mueller-Hinton agar, Table I
Method: as §1, §2

[9] = tested on: Staphylococcus FU 79-19-2β^+; conditions: Mueller-Hinton agar
Method: as §1, §2

[10] = tested on: Staphylococcus SSC 79-18β^-; conditions: Mueller-Hinton agar
Method: as §1, §2

Staphylococcus Smith = conditions: Mueller-Hinton agar, Table I
Method: as §1, §2

[11] = tested on: Micrococcus lutea PCI 1001; conditions: PCI1001, Micrococcus lutea PCI 1001, Mueller-Hinton agar
Method: as §1, §2

Proteus rettgheri K 77-6 = conditions: Mueller-Hinton agar
Method: as §1, §2

[12] = tested on: Providencia stuarti K 81-29; conditions: K8129, Mueller-Hinton agar
Method: as §1, §2

[13] = tested on: Providencia stuarti SSC 80-78; conditions: SSC8078, Mueller-Hinton agar
Method: as §1, §2

[14] = Acinetobacter, STFD7917, Acinetobacter STFD 79-17, read-out: MIC
[15] = Enterococcus, OSU751, Enterococcus OSU 75-1, read-out: MIC
[16] = Pseudomonas, 1244, Pseudomonas 12-4-4, read-out: MIC
[17] = Pseudomonas aeruginosa, ATCC27853, Pseudomonas aeruginosa ATCC 27853, read-out: MIC

| Structure (SMILES) | MIC (Acinetobacter K 77-1) [µg/mL] | MIC (Acinetobacter STFD 79-17; [14]) [µg/mL] | MIC [1] [µg/mL] | MIC [2] [µg/mL] | MIC (Enterococcus OSU 75-1; [15]) [µg/mL] | MIC (Enterococcus SM 77-15) [µg/mL] | MIC (Escherichia coli 311) [µg/mL] | MIC [3] [µg/mL] | MIC [4] [µg/mL] | MIC [5] [µg/mL] | MIC (Klebsiella SSC 78-1) [µg/mL] | MIC (Klebsiella STFD 79-6) [µg/mL] | MIC (Klebsiella pneumoniae AD) [µg/mL] | MIC (Proteus morganii K 79-25) [µg/mL] | MIC (Pseudomonas 12-4-4; [16]) [µg/mL] | MIC (Pseudomonas SSC 78-13) [µg/mL] | MIC [6, 17] [µg/mL] | MIC (Salmonella SSC 79-57) [µg/mL] | MIC ([9]; Staphylococcus, read-out: MIC) [µg/mL] | MIC (Staphylococcus Smith; Staphylococcus, read-out: MIC) [µg/mL] | also measured |
| --- | --- | --- | --- | --- | --- | --- | --- | --- | --- | --- | --- | --- | --- | --- | --- | --- | --- | --- | --- | --- | --- |
| CO/N=C(\C(=O)N[C@@H]1C(=O)N2C(C(=O)O)=C(CSc3nnsc3-c3ccccc3)CS[C@H]12)c1csc(N)n1 [Example 1, (Z)-7-[[(2-Amino-4-thiazolyl)(methoxyimino)acetyl]amino]-8-oxo-3-[[(5-phenyl-1,2,3-thiadiazol-4-yl)thio]mehtyl]-5-thia-1-azabicyclo[4.2.0]oct-2-ene-2-carboxylic acid] | 4 (≈ 6.78 µM) | 16 (≈ 27.1 µM) | 1 (≈ 1.7 µM) | 4 (≈ 6.78 µM) | 128 (≈ 217 µM) | 64 (≈ 109 µM) | 0.5 (≈ 0.848 µM) | 0.12 (≈ 0.203 µM) | ≤ 0.015 | 0.5 (≈ 0.848 µM) | 0.5 (≈ 0.848 µM) | 0.5 (≈ 0.848 µM) | 0.25 (≈ 0.424 µM) | 0.5 (≈ 0.848 µM) | > 128 | 128 (≈ 217 µM) | 128 (≈ 217 µM) | 4 (≈ 6.78 µM) | 4 (≈ 6.78 µM) | 1 (≈ 1.7 µM) | MIC (Proteus rettgheri N 76-1): ≤ 0.015 µg/mL; MIC [7]: 1 µg/mL (≈ 1.7 µM); MIC (Serratia QHC 77-2): 8 µg/mL (≈ 13.6 µM); MIC (Serratia TUL 78-15): 8 µg/mL (≈ 13.6 µM); MIC [8]: 2 µg/mL (≈ 3.39 µM); MIC [10]: 1 µg/mL (≈ 1.7 µM) |
| CO/N=C(\C(=O)N[C@@H]1C(=O)N2C(C(=O)O)=C(CSc3nnsc3-c3ccc(C(C)(C)C)cc3)CS[C@H]12)c1csc(N)n1 [Example 2, (Z)-7-[[(2-Amino-4-thiazolyl)(methoxyimino)acetyl]amino]-3-[[[5-[4-(1,1-dimethylethyl)phenyl]-1,2,3-thiadiazol-4-yl]thio]methyl]-8-oxo-5-thia-1-azabicyclo-[4.2.0]oct-2-ene-2-carboxylic acid] | 16 (≈ 24.8 µM) | 128 (≈ 198 µM) | 0.5 (≈ 0.774 µM) | 2 (≈ 3.1 µM) | 256 (≈ 396 µM) | 256 (≈ 396 µM) | 0.25 (≈ 0.387 µM) | 0.06 (≈ 0.0929 µM) | ≤ 0.03 | 0.25 (≈ 0.387 µM) | 0.06 (≈ 0.0929 µM) | 0.06 (≈ 0.0929 µM) | 0.06 (≈ 0.0929 µM) | 0.5 (≈ 0.774 µM) | > 256 | > 256 | > 256 | 4 (≈ 6.19 µM) | 32 (≈ 49.5 µM) | 8 (≈ 12.4 µM) | MIC [11]: 0.06 µg/mL (≈ 0.0929 µM); MIC (Proteus rettgheri N 76-1): ≤ 0.03 µg/mL; MIC [7]: 1 µg/mL (≈ 1.55 µM); MIC (Serratia QHC 77-2): 32 µg/mL (≈ 49.5 µM); MIC (Serratia TUL 78-15): 32 µg/mL (≈ 49.5 µM); MIC [8]: 16 µg/mL (≈ 24.8 µM); MIC [10]: 8 µg/mL (≈ 12.4 µM) |
| CO/N=C(\C(=O)N[C@@H]1C(=O)N2C(C(=O)O)=C(CSc3nnsc3C(C)(C)C)CS[C@H]12)c1csc(N)n1 [Example 6, (Z)-7-[[(2-Amino-4-thiazolyl)(methoxyimino)acetyl]amino]-3-[[[5-(1,1-dimethylethyl)-1,2,3-thiadiazol-4-yl]thio]methyl]-8-oxo-5-thia-1-azabicyclo[4.2.0]oct-2-ene-2-carboxylic acid] | 32 (≈ 56.2 µM) | 32 (≈ 56.2 µM) | 4 (≈ 7.02 µM) | 1 (≈ 1.76 µM) | 256 (≈ 449 µM) | 128 (≈ 225 µM) | 0.5 (≈ 0.878 µM) | 2 (≈ 3.51 µM) | 0.5 (≈ 0.878 µM) | 0.5 (≈ 0.878 µM) | 1 (≈ 1.76 µM) | 2 (≈ 3.51 µM) | 0.25 (≈ 0.439 µM) | 16 (≈ 28.1 µM) | 64 (≈ 112 µM) | 64 (≈ 112 µM) | 128 (≈ 225 µM) | 8 (≈ 14 µM) | 16 (≈ 28.1 µM) | 2 (≈ 3.51 µM) | MIC [11]: 0.25 µg/mL (≈ 0.439 µM); MIC (Proteus rettgheri K 77-6): ≤ 0.12 µg/mL; MIC [12]: 1 µg/mL (≈ 1.76 µM); MIC [13]: 5 µg/mL (≈ 8.78 µM); MIC [7]: 2 µg/mL (≈ 3.51 µM); MIC (Serratia QHC 77-2): 8 µg/mL (≈ 14 µM); MIC (Serratia TUL 78-15): 8 µg/mL (≈ 14 µM); MIC [8]: 4 µg/mL (≈ 7.02 µM); MIC [10]: 1 µg/mL (≈ 1.76 µM) |
| CO/N=C(\C(=O)N[C@@H]1C(=O)N2C(C(=O)O)=C(COC(C)=O)CS[C@H]12)c1csc(N)n1 [Cefotaxime, 3-[(acetyloxy)methyl]-7β-[[(2-amino-4-thiazolyl)(methoxyimino)acetyl]amino]-8-oxo-5-thia-1-azabicyclo[4.2.0]oct-2-ene-2-carboxylic acid, reference compound] |  | 8 (≈ 17.6 µM) | 0.03 (≈ 0.0659 µM) |  | 128 (≈ 281 µM) |  |  |  |  |  |  |  |  |  | 16 (≈ 35.1 µM) | 32 (≈ 70.3 µM) | 16 (≈ 35.1 µM) | 0.25 (≈ 0.549 µM) | 4 (≈ 8.78 µM) | 1 (≈ 2.2 µM) | MIC (Acinetobacter STFD 79-17; Acinetobacter STFD 79-17): 16 µg/mL (≈ 35.1 µM); MIC (Enterococcus OSU 75-1; Enterococcus OSU 75-1): 64 µg/mL and > 128 µg/mL; MIC (Proteus rettgheri K 77-6): ≤ 0.06 µg/mL; MIC (Proteus rettgheri N 76-1): ≤ 0.015 µg/mL; MIC [12]: 0.25 µg/mL (≈ 0.549 µM); MIC [13]: ≤ 0.06 µg/mL; MIC (Pseudomonas 12-4-4; Pseudomonas 12-4-4): 8 µg/mL (≈ 17.6 µM); MIC ([6]; Pseudomonas aeruginosa ATCC 27853): 32 µg/mL (≈ 70.3 µM); MIC [9]: 8 µg/mL (≈ 17.6 µM); MIC (Staphylococcus Smith): 2 µg/mL (≈ 4.39 µM) |
